# Patent publication US8765211B2, “Method for coating metal implants with therapeutic mixtures” (Enbio Limited, priority 2009, dated 2014)
# Tests used:
# [1] = Elution of vancomycin from beaded Ti coupons with zero, one or two PLGA layers in PBS buffer (UV/VIS); type: physicochemical; conditions: beaded Ti coupon
# Experimental: A 25 mm diameter coupon with a sintered titanium beaded surface was used as the test substrate. […] Vancomycin was dissolved in water to produce a solution of 0.5 g/25 ml. 0.5 ml of this solution was then applied in droplet form to the surface of each sample coupon and allowed to dry in an oven at 40° C. This technique was repeated three times to give a total loading of 1.5 ml of the vancomycin solution per coupon.
# PLGA polymer (2.5 g) was dissolved in 50 mL of dichloromethane solvent. The polymer solution was added to the surface of the drug loaded coupons in a dropwise fashion similar to that employed to deploy the drug. Again, three applications of 0.5 ml were applied to produce a single layer of polymer with sufficient time being allowed between each application to allow the solvent to evaporate.
# To investigate the effect of polymer coating thickness, a second set of three PLGA solutions were applied to form a batch of samples with 6 applications of polymer in total. This produced a sample with twice the coating thickness and is therefore herein referred to as having two layers of polymer.
# All samples were then treated with an abrasive blasting process as described in WO2008/033867. The equipment platform was a Comco Standard Lathe. Two nozzles were employed to deliver an abrasive and a dopant respectively. The abrasive chosen was MCD 106 microns (Himed, NY, USA) and the dopant was hydroxyapatite (25/60 microns, SAI, France). The abrasive was delivered at a pressure of 75 psi and the dopant was delivered at 90 psi. The substrate was moved at a speed of 13 mm/sec relative to the nozzles.
# Drug elution studies were carried out in PBS buffer solution and drug concentrations were determined using an Agilent 8453 UV/VIS spectrophotometer system. The elution profile of samples with zero, one and two layers of polymer were determined over 48 hours and the % vancomycin elution was determined. […] In the absence of any polymer coating, the drug had effectively eluted form the surface within 30 minutes and no further elution was detected.
# [2] = Elution of gentamicin sulphate from PLGA-coated, abrasively blasted porous beaded titanium hip stem in phosphate saline buffer (Abbott TDx/FLX); type: physicochemical; conditions: Summit hip stem with Porocoat finish, GS plus PLGA overcoat, blasted with MCD/HA; immersed in 300 ml phosphate saline buffer
# Experimental: This example describes the modification of an implantable titanium hip stem containing a porous beaded surface. A Summit hip stem (DePuy) with a Porocoat finish was used as the substrate. The active chosen for study was gentamicin sulphate (GS).
# The stem was first coated GS by dissolving 0.6 g of GS in 10 ml of water and applying the solution to the surface drop wise. In total, 0.1575 g of GS was added to the surface. Once dry, a polymer overcoat was applied by adding a solution of PLGA (3.5 g of PLGA in 10 ml of dichloromethane) dropwise and allowing to dry The coated hip stem was then abrasively blasted as per WO2008/033867 to remove the outer layer of polymer. Blasting was carried out in a Comco Standard Lathe operating at a pressure of 100 psi. MCD abrasive grit (Supplied by Himed, New York) was used as the abrasive and HA (SAI, France) was used as the dopant. Each powder was fed in a separate stream at the surface at a pressure of 100 psi and with an offset distance of 15-25 mm. The blast device was moved over the surface at a speed of approximately 100 mm/sec.
# Elution of the drug from the surface was evaluated by immersing the entire hip stem in 300 ml of phosphate saline buffer and measuring drug concentration in solution using an Abbott TDx/FLX system. […]
duration of gentamicin release [2] [days],time in which the bulk of the drug is released [2],Compound,time by which the drug had effectively eluted from the surface ([1]; no polymer coating (zero layers)) [min],time to complete elution ([1]; single layer of polymer (3 applications of PLGA)),"elution duration ([1]; twice the thickness of polymer (6 applications of PLGA, two layers)) [h]"
,,CN[C@H](CC(C)C)C(=O)N[C@H]1C(=O)N[C@@H](CC(N)=O)C(=O)N[C@H]2C(=O)N[C@H]3C(=O)N[C@H](C(=O)N[C@H](C(=O)O)c4cc(O)cc(O)c4-c4cc3ccc4O)[C@H](O)c3ccc(c(Cl)c3)Oc3cc2cc(c3O[C@@H]2O[C@H](CO)[C@@H](O)[C@H](O)[C@H]2O[C@H]2C[C@](C)(N)[C@H](O)[C@H](C)O2)Oc2ccc(cc2Cl)[C@H]1O [vancomycin],≤ 30,up to 10 hours,24
4,within the first day,gentamicin sulphate,,,
